Test results reported in patent US20160324152A1, “Compositions And Methods For Killing And/Or Immobilizing Insects” (The United States of America, as represented by the …, priority 2015, published 2016).
Read-outs that look alike come from different tables or passages of the source.

System: Solenopsis invicta workers
Details: topical
Experimental: Topical Bioassay: Mortalities of S. invicta workers after topical treatment with Ethal TDA surfactants were determined. For ease of handling and obtaining uniform body weight, only large workers were used in the bioassay. Acetone was used as a solvent. The solution (10% w/v) was applied with a 0.779 μl capillary tube. All surfactants were tested at a concentration of 77.9 μg/ant. In the control, ants were only treated with 0.779 μl acetone. Treated ants were placed in a 30-ml capped cup at room temperature (˜23° C.) and dead ants were counted at 24 h. Three colonies were originally tested. There were 3-6 replicates for each colony. A single replicate consisted of 17 to 20 ants. In order to assess the mortality at 48 h, another three colonies were tested. For these three colonies, dead ants were counted at both 24 h and 48 h. Mortalities were adjusted using Abbott's formula (Abbott, W. S., J. Econ. Entomol., 18: 265-267 (1925)) before being used in statistical analysis. For analyzing 24 h mortality, data for all six colonies were used.
We also tested the toxicity of piperonyl butoxide (PBO) against red imported fire ants. […] Topical bioassay as described above was used: Mortalities of S. invicta workers after topical treatment with PBO were determined. […] Treated ants were placed in a 30-ml capped cup at room temperature (˜23° C.) and dead ants were counted at 24 h. […]

## CCCCCCCCCCCC(C)=O [2-tridecanone]
Colony 288, PBO 0 μg/ant
  LD50: 18.96 μg/ant
Colony 295, PBO 0 μg/ant
  LD50: 22.82 μg/ant
